Source: patent US6696482B2, “Formulations for hydrophobic pharmaceutical agents” (Sugen, Inc., priority 1997, dated 2004)
≈ marks a conversion by molar mass, not a printed value. Read-outs that look alike come from different tables or passages of the source.

Legend:
[1] = Solubility of the indolinone-based compound in water and excipients; format: physicochemical
Description: An increase in the indolinone-based compound's aqueous solubility in hydrotropic solute solutions like nicotinamide and pyridoxine hydrochloride was observed. It is soluble (15-20 mg/mL) in polar excipients like polyethylene glycols of 300 and 400 MW.
(§1) The indolinone-based compound is a planar aromatic compound and is non-ionizable in the pharmaceutically acceptable range.

[2] = Log of ratio of octanol to water solubility (individually determined); format: physicochemical; details: solubilities individually determined
Excerpt: as §1

[3] = tested on: VEGF-induced endothelial cell growth; assay: Inhibition of VEGF-induced endothelial cell growth; format: cell-based; details: in words
Description: Indolinone-based compounds of the invention have been tested for their ability to activate or inhibit protein kinases in biological assays. The methods used to measure indolinone-based compound modulation of protein kinase function are described in U.S. application Ser. No. 08/702,282, filed Aug. 23, 1996, incorporated herein by reference in its entirety, a including any drawings. In particular, indolinone-based compounds of the invention were tested for their ability to inhibit the FLK protein kinase.

Nc1nc(N)c2c(Oc3ccccc3F)cccc2n1 [Procedure B 4, 2,4-Diamino-5-(2-fluorophenoxy)quinazoline]
melting point: 301 to 303 °C

Nc1nc(N)c2c(Oc3cccc(Br)c3)cccc2n1 [Procedure B 5, 2,4-Diamino-5-(3-bromophenoxy)quinazoline]
melting point: 292 to 295 °C

Nc1ncnc2cccc(Oc3ccc4c(c3)OCO4)c12 [Procedure C 5, 4-Amino-5-(3,4-methylenedioxyphenoxy) quinazoline]
melting point: 201 to 203 °C

Nc1ncnc2cccc(Oc3cccnc3)c12 [Procedure C 3, 4-Amino-5-(3-pyridinoxy)quinazoline]
melting point: 245 to 247 °C

Nc1nc(N)c2c(Oc3ccc(OCc4ccccc4)cc3)cccc2n1 [Procedure B 8, 2,4-Diamino-5-(4-benzyloxyphenoxy)quinazoline]
melting point: 175 to 177 °C

COc1ccc(Oc2cccc3nc(N)nc(N)c23)cc1OC [Procedure B 2, 2,4-Diamino-5-(3,4-dimethoxyphenoxy)quinazoline]
melting point: 301 to 302 °C

CC(C)(C)c1ccc(Oc2cccc3nc(N)nc(N)c23)cc1 [Procedure B 1, 2,4-Diamino-5-(4-tert-butylphenoxy)quinazoline]
melting point: 226 to 228 °C

CN(C)CCCOc1cccc2nc(N)nc(N)c12 [Procedure B 9, 2,4-Diamino-5-(3-dimethylaminopropoxy)quinazoline]
melting point: 193 to 195 °C

Nc1ncnc2cccc(Oc3ccc(F)cc3)c12 [Similar synthetic processes 1, 4-Amino-5-(4-fluorophenoxy)quinazoline]
melting point: 188 to 190 °C

Nc1nc(N)c2c(-n3cccc3)cccc2n1 [Procedure D 4, 2,4-Diamino-5-(pyrrol-1-yl)quinazoline]
melting point: 248 to 250 °C

Nc1ncnc2cccc(Oc3ccc(OCc4ccccc4)cc3)c12 [Procedure C 4, 4-Amino-5-(4-benzyloxyphenoxy)quinazoline]
melting point: 170 to 171 °C

COc1ccccc1Oc1cccc2nc(N)nc(N)c12 [Procedure B 6, 2,4-Diamino-5-(2-methoxyphenoxy)quinazoline]
melting point: 208 to 209 °C (dec.)

Cc1cc(C)c(C=C2C(=O)Nc3ccccc32)[nH]1 [3-[(2,4-dimethylpyrrol-5-yl)methylene]-2-indolinone]
influence of pH of the aqueous media on aqueous solubility [1]: did not influence
solubility ([1]; aromatic solvents like benzyl alcohol, organic solvent or mixture, read-out: solubility in aromatic solvents): 10 to 15 mg/mL (≈ 42 to 62.9 mM)
aqueous solubility in hydrotropic solute solutions ([1]; hydrotropic solute solutions like nicotinamide and pyridoxine hydrochloride): increase
solubility in water, water miscible non-aqueous solvents, and oils ([1]; in words): low solubility
solubility ([1]; polyethylene glycols of 300 and 400 MW, organic solvent or mixture, read-out: solubility in polar excipients): 15 to 20 mg/mL (≈ 62.9 to 83.9 mM)
solubility ([1]; polyglycolized lipids like LABPASOL and GELUCIRE, oil or lipid, read-out: solubility in polyglycolized lipids): 25 to 30 mg/mL (≈ 105 to 126 mM)
solubility ([1]; water, read-out: solubility in water): 1e-05 mg/mL (≈ 4.2e-05 mM)
log of ratio of octanol to water solubility [2]: 5.6
inhibition of VEGF-induced endothelial cell growth [3]: specific and potent inhibitor

CN(C)c1cccc(Oc2cccc3ncnc(N)c23)c1 [Procedure C 2, 4-Amino-5-(3-dimethylaminophenoxy)quinazoline]
melting point: 179 to 181 °C

COc1ccc(Oc2cccc3ncnc(N)c23)cc1 [Procedure C 1, 4-Amino-5-(4-methoxyphenoxy)quinazoline]
melting point: 192 to 195 °C

CN(C)c1cccc(Oc2cccc3nc(N)nc(N)c23)c1 [Procedure B 3, 2,4-Diamino-5-(3-dimethylaminophenoxy)quinazoline]
melting point: 224 to 225 °C (dec.)
